# Results: PMC12120022, “Discovery and chemical optimisation of a potent, Bi-cyclic antimicrobial inhibitor of Escherichia coli PBP3” (Communications Biology, 2025)
# Where a SMILES comes first, the peptide text is derived from it.
# Key:
# EcPBP3 [1] = target: T1, EcPBP3 (Escherichia coli, UniProt P0AD68); assay: SPR binding assay on immobilised EcPBP3; conditions: 37 °C, kinetic fitting, NB = no binding at 2500 nM (Tables S-4, S-5) or 5000 nM (Table 1); for Kd: read-out: Kd (nM) by SPR (geomean)
# T1 construct: For assays, selections and SPR a construct with residues 60–588 which has the N-terminal domain, but not the transmembrane helix, was used; made in house
# Procedure: Surface plasmon resonance (SPR) assays were performed using EcPBP3 immobilized on CM5 sensor chips (GE Healthcare) via amine-coupling chemistry in assay buffer (10 mM HEPES pH 8.0, 200 mM NaCl, 0.05% (v/v) surfactant P20). The chip surface was activated by injection (10 μL min^–1) of 0.4 M EDC and 0.1 M NHS (in a 1:1 ratio) with a 7 min contact time. Protein was diluted to 25 μg mL^–1 in 10 mM MOPS (pH 7.0) and injected over the activated sensor chip surface to reach immobilization of 1500-2500 response units. Excess hydroxysuccinimidyl groups on the chip surface were deactivated by injection (10 μL min^–1) of 1 M ethanolamine hydrochloride pH 8.0 with a 7 min contact time. Reference flow cells were prepared as described, but without ligand (EcPBP3 protein).
# Binding analysis runs were performed at 37 °C in running buffer (10 mM HEPES pH 8.0, 200 mM NaCl, 0.05% (w/v) Tween-20, 2% (v/v) DMSO). Test compounds (and control runs of buffer only) were injected in running buffer over the EcPBP3 chip and reference flow cell, at flow rate of 50 μL min^–1 for 150 s contact time and 2400 s dissociation time. Each injection was followed by a wash with 50% (v/v) DMSO. All compounds were tested in at least two independent biological replicates unless otherwise stated.
# Raw sensorgrams data were solvent-corrected, reference-subtracted and blank-buffer-subtracted (double-referencing) before kinetic and affinity analysis to account for non-specific binding and injection artifacts. Equilibrium dissociation constant (Kd) values was determined using the Biacore™ Insight Evaluation Software (version 4.0.8 or version 5.0.17) using kinetic fitting. Kd values presented are the geometric mean of at least two biological replicates.
# EcPBP3 [2] = target: T1, EcPBP3; assay: Fluorescence polarisation competition assay with fluorescent Bicycle tracer (tracer 1 / BCY12820); type: binding; conditions: protein 9.4 nM sets sensitivity limit, top concentration 5 µM, read-out: Ki (nM) by fluorescence polarisation with tracer 1 (BCY12820 as tracer), Geometric mean (Lower 95% CI; Upper 95% CI, n=number of values)
# Procedure: Competition fluorescence polarisation assays were run by observing the fluorescence polarisation of a fluorescent “tracer” Bicycle molecule which competes against an unlabelled peptide for binding to the EcPBP3 target. 10 µL of protein (9.4 nM) was mixed with either 5 µL of peptide or 5 µL of buffer and then the assay was initiated by the addition of 10 µL of tracer (1 nM) (final volume 25 µL), in a black 384 low bind, low volume plate (Corning). The buffer was 10 mM HEPES (Sigma), 2% (v/v) glycerol (Sigma), 300 mM NaCl (Sigma), adjusted to pH 8. The plate was incubated for 1 h at 25 °C and then read in a PHERAstar FS (BMG) using with an “FP 485 520 520” optic module (excitation 485 nm, emission 520 nm). The gain was determined immediately prior to the read on a tracer-only well.
# Dotmatics (Dotmatics) workflows performing the above calculations were used to process the data. Values quoted are the geometric means of at least 2 repeats.
# T1 sequence (P0AD68 60-588): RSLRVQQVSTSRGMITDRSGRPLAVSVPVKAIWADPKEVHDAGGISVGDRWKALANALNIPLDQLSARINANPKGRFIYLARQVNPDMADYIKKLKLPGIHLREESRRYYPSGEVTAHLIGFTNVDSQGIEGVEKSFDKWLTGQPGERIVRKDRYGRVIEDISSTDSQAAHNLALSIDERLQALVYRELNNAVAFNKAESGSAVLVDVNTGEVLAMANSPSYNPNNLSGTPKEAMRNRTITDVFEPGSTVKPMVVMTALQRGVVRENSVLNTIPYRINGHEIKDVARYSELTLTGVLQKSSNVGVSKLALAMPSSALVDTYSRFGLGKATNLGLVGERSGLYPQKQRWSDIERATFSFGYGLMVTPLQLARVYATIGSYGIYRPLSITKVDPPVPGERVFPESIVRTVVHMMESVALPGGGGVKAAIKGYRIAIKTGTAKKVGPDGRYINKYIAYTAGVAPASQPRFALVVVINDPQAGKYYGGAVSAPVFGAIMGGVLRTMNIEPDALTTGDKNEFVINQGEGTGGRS
SMILES,Kd (EcPBP3 [1]) [nM],Ki (EcPBP3 [2]) [nM],Kd (nM) by SPR (geomean) (EcPBP3 [1])
"CC(C)[C@@H]1NC(=O)[C@H](Cc2c[nH]c3ccccc23)NC(=O)[C@@H]2CCCN2C(=O)[C@@H]2CSCCC(=O)N3CN(CN(C3)C(=O)CCSC[C@H](NC(=O)[C@H](C)N)C(=O)N[C@@H](C)C(=O)N[C@@H](Cc3ccccc3)C(=O)N3CCC[C@H]3C(=O)N[C@@H](CCCCN)C(=O)N2)C(=O)CCSC[C@@H](C(=O)N[C@@H](C)C(N)=O)NC(=O)CNC(=O)[C@H](CCC(=O)O)NC1=O [Peptide 16] (HELM PEPTIDE1{A.C.A.F.P.K.C.P.W.V.E.G.C.A.[am]}|CHEM1{[O=C(CC[*:1])N1CN(C(=O)CC[*:2])CN(C(=O)CC[*:3])C1]}$PEPTIDE1,CHEM1,2:R3-1:R1|PEPTIDE1,CHEM1,7:R3-1:R2|PEPTIDE1,CHEM1,13:R3-1:R3$$$V2.0)",6.44,< 9,
CC(C)[C@@H]1NC(=O)[C@H](Cc2c[nH]c3ccccc23)NC(=O)[C@@H]2CCCN2C(=O)[C@@H]2CSCCC(=O)N3CN(CN(C3)C(=O)CCSC[C@H](NC(=O)[C@H](C)N)C(=O)N[C@@H](CO)C(=O)N[C@@H](Cc3ccccc3)C(=O)N[C@@H](C)C(=O)N[C@@H](CCCCN)C(=O)N2)C(=O)CCSC[C@@H](C(=O)N[C@@H](C)C(N)=O)NC(=O)CNC(=O)[C@H](CCC(=O)O)NC1=O [Peptide 18],178,76.9,
CC(C)[C@@H]1NC(=O)[C@H](Cc2c[nH]c3ccccc23)NC(=O)[C@@H]2CCCN2C(=O)[C@@H]2CSCCC(=O)N3CN(CN(C3)C(=O)CCSC[C@H](NC(=O)[C@H](C)N)C(=O)N[C@@H](CO)C(=O)N[C@@H](Cc3ccccc3)C(=O)N3CCC[C@H]3C(=O)N[C@@H](C)C(=O)N2)C(=O)CCSC[C@@H](C(=O)N[C@@H](C)C(N)=O)NC(=O)CNC(=O)[C@H](CCC(=O)O)NC1=O [Peptide 19],12.4,< 9,
"CC(C)[C@@H]1NC(=O)[C@H](C)NC(=O)[C@@H]2CCCN2C(=O)[C@@H]2CSCCC(=O)N3CN(CN(C3)C(=O)CCSC[C@H](NC(=O)[C@H](C)N)C(=O)N[C@@H](CO)C(=O)N[C@@H](Cc3ccccc3)C(=O)N3CCC[C@H]3C(=O)N[C@@H](CCCCN)C(=O)N2)C(=O)CCSC[C@@H](C(=O)N[C@@H](C)C(N)=O)NC(=O)CNC(=O)[C@H](CCC(=O)O)NC1=O [Peptide 21] (HELM PEPTIDE1{A.C.S.F.P.K.C.P.A.V.E.G.C.A.[am]}|CHEM1{[O=C(CC[*:1])N1CN(C(=O)CC[*:2])CN(C(=O)CC[*:3])C1]}$PEPTIDE1,CHEM1,2:R3-1:R1|PEPTIDE1,CHEM1,7:R3-1:R2|PEPTIDE1,CHEM1,13:R3-1:R3$$$V2.0)",> 2500,> 5000,
"C[C@H](N)C(=O)N[C@H]1CSCCC(=O)N2CN3CN(C2)C(=O)CCSC[C@H](NC(=O)[C@H](CCCCN)NC(=O)[C@@H]2CCCN2C(=O)[C@H](Cc2ccccc2)NC(=O)[C@H](CO)NC1=O)C(=O)N1CCC[C@H]1C(=O)N[C@@H](Cc1c[nH]c2ccccc12)C(=O)N[C@@H](C)C(=O)N[C@@H](CCC(=O)O)C(=O)NCC(=O)N[C@H](C(=O)N[C@@H](C)C(N)=O)CSCCC3=O [Peptide 22] (HELM PEPTIDE1{A.C.S.F.P.K.C.P.W.A.E.G.C.A.[am]}|CHEM1{[O=C(CC[*:1])N1CN(C(=O)CC[*:2])CN(C(=O)CC[*:3])C1]}$PEPTIDE1,CHEM1,2:R3-1:R1|PEPTIDE1,CHEM1,7:R3-1:R2|PEPTIDE1,CHEM1,13:R3-1:R3$$$V2.0)",669,> 5000,
CC(C)[C@@H]1NC(=O)[C@H](Cc2c[nH]c3ccccc23)NC(=O)[C@@H]2CCCN2C(=O)[C@@H]2CSCCC(=O)N3CN(CN(C3)C(=O)CCSC[C@H](NC(=O)[C@H](C)N)C(=O)N[C@@H](CO)C(=O)N[C@@H](Cc3ccccc3)C(=O)N3CCC[C@H]3C(=O)N[C@@H](CCCCN)C(=O)N2)C(=O)CCSC[C@@H](C(=O)N[C@@H](C)C(N)=O)NC(=O)CNC(=O)[C@H](C)NC1=O [Peptide 23],6.71,9.08,
CC(C)[C@@H]1NC(=O)[C@H](Cc2c[nH]c3ccccc23)NC(=O)[C@@H]2CCCN2C(=O)[C@@H]2CSCCC(=O)N3CN(CN(C3)C(=O)CCSC[C@@H](C(=O)N[C@@H](C)C(N)=O)NC(=O)[C@H](C)NC(=O)[C@H](CCC(=O)O)NC1=O)C(=O)CCSC[C@H](NC(=O)[C@H](C)N)C(=O)N[C@@H](CO)C(=O)N[C@@H](Cc1ccccc1)C(=O)N1CCC[C@H]1C(=O)N[C@@H](CCCCN)C(=O)N2 [Peptide 24],24.4,25.5,
CC(C)[C@@H]1NC(=O)[C@H](Cc2c[nH]c3ccccc23)NC(=O)[C@@H]2CCCN2C(=O)[C@@H]2CSCCC(=O)N3CN(CN(C3)C(=O)CCSC[C@H](NC(=O)[C@H](C)N)C(=O)N[C@@H](CO)C(=O)N[C@@H](Cc3ccccc3)C(=O)N3CCC[C@H]3C(=O)N[C@@H](CCCCNC(=N)N)C(=O)N2)C(=O)CCSC[C@@H](C(=O)N[C@@H](C)C(N)=O)NC(=O)CNC(=O)[C@H](CCC(=O)O)NC1=O [Peptide 25],2.85,< 9,no loss in binding or MIC
"CC(C)C[C@@H]1NC(=O)[C@@H](NC(=O)[C@H](C)N)CSCCC(=O)N2CN3CN(C2)C(=O)CCSC[C@H](NC(=O)[C@H](CCCCNC(=N)N)NC(=O)[C@@H]2CCCN2C(=O)[C@H](Cc2ccccc2)NC1=O)C(=O)N1CCC[C@H]1C(=O)N[C@@H](Cc1c[nH]c2ccccc12)C(=O)N[C@@H](C(C)C)C(=O)N[C@@H](CCC(=O)O)C(=O)NCC(=O)N[C@H](C(=O)N[C@@H](C)C(N)=O)CSCCC3=O [Peptide 27] (HELM PEPTIDE1{A.C.L.F.P.[N=C(N)NCCCC[C@H](N[*:1])C(=O)[*:2]].C.P.W.V.E.G.C.A.[am]}|CHEM1{[O=C(CC[*:1])N1CN(C(=O)CC[*:2])CN(C(=O)CC[*:3])C1]}$PEPTIDE1,CHEM1,2:R3-1:R1|PEPTIDE1,CHEM1,7:R3-1:R2|PEPTIDE1,CHEM1,13:R3-1:R3$$$V2.0)",3.36,< 9,
"CC(C)[C@@H]1NC(=O)[C@H](Cc2c[nH]c3ccccc23)NC(=O)[C@@H]2CCCN2C(=O)[C@@H]2CSCCC(=O)N3CN(CN(C3)C(=O)CCSC[C@H](NC(=O)[C@H](C)N)C(=O)N[C@@H](Cc3ccccc3)C(=O)N[C@@H](Cc3ccccc3)C(=O)N3CCC[C@H]3C(=O)N[C@@H](CCCCNC(=N)N)C(=O)N2)C(=O)CCSC[C@@H](C(=O)N[C@@H](C)C(N)=O)NC(=O)CNC(=O)[C@H](CCC(=O)O)NC1=O [Peptide 28] (HELM PEPTIDE1{A.C.F.F.P.[N=C(N)NCCCC[C@H](N[*:1])C(=O)[*:2]].C.P.W.V.E.G.C.A.[am]}|CHEM1{[O=C(CC[*:1])N1CN(C(=O)CC[*:2])CN(C(=O)CC[*:3])C1]}$PEPTIDE1,CHEM1,2:R3-1:R1|PEPTIDE1,CHEM1,7:R3-1:R2|PEPTIDE1,CHEM1,13:R3-1:R3$$$V2.0)",1.12,< 9,
"CC(C)[C@@H]1NC(=O)[C@H](Cc2c[nH]c3ccccc23)NC(=O)[C@@H]2CCCN2C(=O)[C@@H]2CSCCC(=O)N3CN(CN(C3)C(=O)CCSC[C@@H](C(=O)N[C@@H](C)C(N)=O)NC(=O)[C@H](Cc3ccc(O)cc3)NC(=O)[C@H](CCC(=O)O)NC1=O)C(=O)CCSC[C@H](NC(=O)[C@H](C)N)C(=O)N[C@@H](CO)C(=O)N[C@@H](Cc1ccccc1)C(=O)N1CCC[C@H]1C(=O)N[C@@H](CCCCNC(=N)N)C(=O)N2 [Peptide 51] (HELM PEPTIDE1{A.C.S.F.P.[N=C(N)NCCCC[C@H](N[*:1])C(=O)[*:2]].C.P.W.V.E.Y.C.A.[am]}|CHEM1{[O=C(CC[*:1])N1CN(C(=O)CC[*:2])CN(C(=O)CC[*:3])C1]}$PEPTIDE1,CHEM1,2:R3-1:R1|PEPTIDE1,CHEM1,7:R3-1:R2|PEPTIDE1,CHEM1,13:R3-1:R3$$$V2.0)",1.83,< 9,
